The values below come from PubChem BioAssay AID449760 (The Scripps Research Institute Molecular Screening Center, 2010).

Values joined by “and” are separate entries in the source; they are usually repeats but may differ in a detail not shown here. Equal values may be shown once. Active and inactive are the calls of the source. The rule behind the calls is not given here.

The assay has as its system NIH 3T3 STAT1-luciferase reporter, IFNg-stimulated, luminescence. Briefly: STAT1 reporter activators, provider retest, late-stage follow-up, cell-based, luminescence, NIH 3T3, assay provider (AID 449760). As to conditions: at 10 µM; stronger effect = higher value.
Take `Cc1nnc(SCC(=O)Nc2ccc(-c3nc4ccccc4s3)cc2)s1`: the fold change vs IFNg is 1 (inactive).

As for `COc1ccc(-c2cc(C)nc3c(-c4ccccc4)cnn23)cc1`, the fold change vs IFNg is 0.36 (inactive) and 0.19 (inactive). Regarding `CC(=O)NC(=S)Nc1sc2c(c1C#N)CCCCC2`, the fold change vs IFNg is 0.45 (inactive). Consider `Cc1cc(-c2ccc(F)cc2)n2ncc(-c3ccccc3)c2n1`, for which the fold change vs IFNg is 0.09 (inactive). Take `CCN(CC)c1ccc2cc(C(=O)Nc3ccccn3)c(=O)oc2c1`: the fold change vs IFNg is 0.41 (inactive). On to `Cc1ccc(C(=O)Nc2nc3ccccc3s2)s1`, for which the fold change vs IFNg was 1.22 (inactive). For `O=C(Nc1nc2ccccc2s1)c1cc2ccccc2s1`, the fold change vs IFNg was 1.02 (inactive). As for `O=C(/C=C/Nc1ccccc1F)c1ccc(Br)cc1`, the figure is 0.87 (inactive).

Consider `N#C/C(=C\c1ccc(N2CCOCC2)o1)c1nc2ccccc2[nH]1`, for which the fold change vs IFNg was 0.94 (inactive). In the case of `CCOC(=O)/C(C#N)=C/c1cc(C)n(-c2ccccc2)c1C`, the fold change vs IFNg was 0.028 (inactive). With `COc1ccc(-c2csc(N3C(=O)CNC3=S)n2)cc1`, the fold change vs IFNg was 1.19 (inactive).

Turning to `COc1ccc2[nH]c3c(c2c1)CCn1c-3nc2ccccc2c1=O`, the fold change vs IFNg is 0.94 (inactive).
